This assay addresses T1, Cg3388 (IhtR) (Corynebacterium glutamicum, UniProt Q8NL89).
T1 construct: gene Cgl3059; Cg3388 with N-terminal His-tag kept (pET16b-cg3388), E. coli BL21(DE3), Ni-NTA
T1 sequence (Q8NL89 1-287): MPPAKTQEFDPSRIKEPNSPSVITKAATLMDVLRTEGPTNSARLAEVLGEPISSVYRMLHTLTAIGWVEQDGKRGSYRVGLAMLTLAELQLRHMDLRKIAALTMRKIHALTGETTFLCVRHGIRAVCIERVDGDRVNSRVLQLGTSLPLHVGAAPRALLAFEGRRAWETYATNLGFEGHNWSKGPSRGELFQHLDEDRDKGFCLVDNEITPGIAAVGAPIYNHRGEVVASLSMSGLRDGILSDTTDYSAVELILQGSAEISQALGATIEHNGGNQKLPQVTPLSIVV
In words: EMSA, release of target DNA by effector. It is filed as binding. The settings on record: threshold, not a constant; Cg3388 in 153-fold molar excess over 45 ng cg3388-iolT2 intergenic DNA; pH 7.5, 10 mM MgCl2, room temperature; effector (inducer) of repressor.

Consider three molecules from publication PMC7764795, “Physiological Response of Corynebacterium glutamicum to Indole” (Microorganisms, 2020).

In the case of `Oc1ccc(O)c(O)c1` [1,2,4-trihydroxybenzene], the “concentration above which DNA binding is interfered with” value is more than 0.05 mM.

For the molecule `Oc1ccc(O)cc1` [hydroquinone], the “concentration above which DNA binding is interfered with” value was more than 0.5 mM.

For the molecule `c1ccc2[nH]ccc2c1` [indole], the “concentration above which DNA binding is interfered with” value is more than 4 mM.
